According to PMC3014449 (Molecular immunology, 2010):
pIC50: −log10 of the molar value.

Tested on: classical pathway activation of complement in human serum
Experiment: Inhibition of complement activation
Format: biochemical
Details: NA: not active at the highest concentrations tested; for IC50 / pIC50: complement inhibition assay, initiation via the classical pathway, human serum; for IC50 fold change: relative to peptide 1

| IC50 | pIC50 | IC50 fold change | Substance |
| --- | --- | --- | --- |
|  | 4.60 | 0.1 | Ac-I[CVYQD(NMe)WGAHRC]T-NH2 [Peptide 7] |
|  | 5.84 | 1.7 | Ac-I[CVYQDW(NMe)GAHRC]T-NH2 [Peptide 8] |
| completely inactive |  |  | Ac-I[CVYQDWG(NMe)AHRC]T-NH2 [Peptide 9] |
|  | 4.03 | 0.03 | Ac-I[CVYQDWGA(NMe)HRC]T-NH2 [Peptide 10] |
|  | 4.49 | 0.08 | Ac-I[CVYQDWGAH(NMe)RC]T-NH2 [Peptide 11] |
|  | 3.81 | 0.02 | Ac-I[CVYQDWGAHR(NMe)C]T-NH2 [Peptide 12] |

Continued, substance first:

| Substance | IC50 | pIC50 | IC50 fold change |
| --- | --- | --- | --- |
| Ac-I[C(NMe)VYQDWGAHRC]T-NH2 [Peptide 3] | completely inactive |  |  |
| Ac-I[CV(NMe)YQDWGAHRC]T-NH2 [Peptide 4] | completely inactive |  |  |
| Ac-I[CVY(NMe)QDWGAHRC]T-NH2 [Peptide 5] |  | 4.48 | 0.07 |
| Ac-I[CVYQ(NMe)DWGAHRC]T-NH2 [Peptide 6] |  | 4.36 | 0.06 |
